Measurements: ChEMBL document CHEMBL5465560, “Selectivity Literature for EUbOPEN Chemogenomic Library” (2024)

Tests used:
[1] = target: Serine/threonine-protein kinase 32A (Homo sapiens) (UniProt Q8WU08); assay: Selectivity interaction (KinomeScan (DiscoverX)) EUB0000092b STK32A; details: at 10 µM
[2] = target: Receptor tyrosine-protein kinase erbB-3 (Homo sapiens) (UniProt P21860); assay: Selectivity interaction (KinomeScan (DiscoverX)) EUB0000655a ERBB3; details: at 10 µM
[3] = target: Platelet-derived growth factor receptor alpha (Homo sapiens, UniProt P16234); assay: Selectivity interaction (KinomeScan (DiscoverX)) EUB0001079a PDGFRA; details: at 1 µM
[4] = target: Hepatocyte growth factor-like protein (Homo sapiens) (UniProt P26927); assay: Selectivity interaction (KinomeScan (DiscoverX)) EUB0000666a MST1; details: at 10 µM
[5] = target: Mitogen-activated protein kinase 4 (Homo sapiens) (UniProt P31152); assay: Selectivity interaction (KinomeScan (DiscoverX)) EUB0000666a MAPK4; details: at 10 µM
[6] = target: Serine/threonine-protein kinase Chk2 (Homo sapiens) (UniProt O96017); assay: Selectivity interaction (ActivX KiNativ screen (kinase selectivity in THP-1 cell lysates)) EUB0000639a CHEK2; assay type: subcellular; details: lysate, at 0.04 µM
[7] = target: T1, Cyclin-dependent kinase 11A (Homo sapiens) (UniProt Q9UQ88); assay: Selectivity interaction (ActivX KiNativ screen (kinase selectivity in THP-1 cell lysates)) EUB0000639a CDK11A; assay type: subcellular; details: lysate, at 0.04 µM
T1 sequence (whole entry): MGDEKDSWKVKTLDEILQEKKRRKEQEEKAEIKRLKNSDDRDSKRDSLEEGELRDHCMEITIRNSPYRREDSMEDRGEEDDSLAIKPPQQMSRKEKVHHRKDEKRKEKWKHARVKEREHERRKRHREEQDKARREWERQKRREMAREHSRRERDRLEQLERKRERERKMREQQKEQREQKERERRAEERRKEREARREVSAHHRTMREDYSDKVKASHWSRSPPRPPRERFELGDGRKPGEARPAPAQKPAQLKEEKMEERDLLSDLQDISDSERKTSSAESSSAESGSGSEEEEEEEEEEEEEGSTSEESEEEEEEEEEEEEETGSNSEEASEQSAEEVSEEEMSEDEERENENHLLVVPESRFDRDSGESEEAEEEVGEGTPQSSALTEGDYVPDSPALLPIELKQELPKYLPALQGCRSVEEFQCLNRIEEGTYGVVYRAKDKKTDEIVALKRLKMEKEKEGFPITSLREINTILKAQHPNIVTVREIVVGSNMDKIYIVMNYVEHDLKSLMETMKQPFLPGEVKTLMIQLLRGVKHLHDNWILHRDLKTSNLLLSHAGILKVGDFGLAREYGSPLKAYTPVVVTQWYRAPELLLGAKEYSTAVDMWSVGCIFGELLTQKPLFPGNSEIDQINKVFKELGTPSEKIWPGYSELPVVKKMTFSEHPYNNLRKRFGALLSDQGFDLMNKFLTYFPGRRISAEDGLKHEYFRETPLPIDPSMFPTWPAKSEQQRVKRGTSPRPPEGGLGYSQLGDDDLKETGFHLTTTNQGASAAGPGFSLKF

[8] = tested on: T2, Receptor-type tyrosine-protein kinase FLT3 (Homo sapiens), P36888 [D835Y]; assay: (§1) Selectivity interaction (Ambit KINOMEscan and KiNATiv profiling in Jurkat cells) EUB0000090b FLT3; assay type: cell-based; details: at 1 µM
T2 sequence (whole entry): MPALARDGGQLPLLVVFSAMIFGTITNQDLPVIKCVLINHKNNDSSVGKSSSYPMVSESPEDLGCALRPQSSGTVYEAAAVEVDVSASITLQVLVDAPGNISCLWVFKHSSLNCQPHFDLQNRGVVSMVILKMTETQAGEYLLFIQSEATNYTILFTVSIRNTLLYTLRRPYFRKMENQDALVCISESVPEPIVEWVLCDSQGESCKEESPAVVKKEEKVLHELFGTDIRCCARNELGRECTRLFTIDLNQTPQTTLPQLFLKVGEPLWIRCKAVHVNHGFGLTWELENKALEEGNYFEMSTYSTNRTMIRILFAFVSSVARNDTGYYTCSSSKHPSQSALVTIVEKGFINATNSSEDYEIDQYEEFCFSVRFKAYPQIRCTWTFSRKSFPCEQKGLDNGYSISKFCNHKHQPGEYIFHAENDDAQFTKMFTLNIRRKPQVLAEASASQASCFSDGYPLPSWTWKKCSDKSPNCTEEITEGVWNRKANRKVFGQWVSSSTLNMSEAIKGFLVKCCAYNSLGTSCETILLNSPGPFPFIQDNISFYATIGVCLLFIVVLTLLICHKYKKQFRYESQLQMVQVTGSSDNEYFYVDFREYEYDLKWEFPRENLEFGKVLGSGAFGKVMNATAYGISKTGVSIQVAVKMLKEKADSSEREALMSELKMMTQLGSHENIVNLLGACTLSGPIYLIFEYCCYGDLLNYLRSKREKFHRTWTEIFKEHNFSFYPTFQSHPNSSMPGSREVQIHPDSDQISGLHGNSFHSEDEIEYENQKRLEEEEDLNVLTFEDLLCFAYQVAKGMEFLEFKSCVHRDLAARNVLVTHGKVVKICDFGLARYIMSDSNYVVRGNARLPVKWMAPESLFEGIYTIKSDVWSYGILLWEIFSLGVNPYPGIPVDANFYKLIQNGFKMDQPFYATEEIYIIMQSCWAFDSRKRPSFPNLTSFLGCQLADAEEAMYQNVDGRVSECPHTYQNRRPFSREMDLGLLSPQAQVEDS

[9] = tested on: Receptor-type tyrosine-protein kinase FLT3 (Homo sapiens), P36888 [UNDEFINED MUTATION]; assay: as §1; assay type: cell-based; details: at 1 µM
[10] = target: T3, Calcium/calmodulin-dependent protein kinase type IV (Homo sapiens) (UniProt Q16566); assay: Selectivity interaction (Kinase screening (Upstate/Millipore)) EUB0000604a CAMK4
T3 sequence (whole entry): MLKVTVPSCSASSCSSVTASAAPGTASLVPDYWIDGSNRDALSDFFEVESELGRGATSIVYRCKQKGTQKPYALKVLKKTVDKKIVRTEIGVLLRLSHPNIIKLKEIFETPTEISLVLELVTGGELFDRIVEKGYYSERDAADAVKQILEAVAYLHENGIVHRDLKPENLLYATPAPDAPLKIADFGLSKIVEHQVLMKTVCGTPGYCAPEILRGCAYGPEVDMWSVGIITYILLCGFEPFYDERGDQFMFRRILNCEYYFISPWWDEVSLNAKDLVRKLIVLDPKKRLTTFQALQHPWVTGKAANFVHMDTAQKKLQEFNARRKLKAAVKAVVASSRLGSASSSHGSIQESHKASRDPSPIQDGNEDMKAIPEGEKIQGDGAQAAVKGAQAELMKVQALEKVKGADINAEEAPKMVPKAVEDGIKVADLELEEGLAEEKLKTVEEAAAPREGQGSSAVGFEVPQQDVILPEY

Chain of Platelet-derived growth factor receptor alpha (P16234 whole entry): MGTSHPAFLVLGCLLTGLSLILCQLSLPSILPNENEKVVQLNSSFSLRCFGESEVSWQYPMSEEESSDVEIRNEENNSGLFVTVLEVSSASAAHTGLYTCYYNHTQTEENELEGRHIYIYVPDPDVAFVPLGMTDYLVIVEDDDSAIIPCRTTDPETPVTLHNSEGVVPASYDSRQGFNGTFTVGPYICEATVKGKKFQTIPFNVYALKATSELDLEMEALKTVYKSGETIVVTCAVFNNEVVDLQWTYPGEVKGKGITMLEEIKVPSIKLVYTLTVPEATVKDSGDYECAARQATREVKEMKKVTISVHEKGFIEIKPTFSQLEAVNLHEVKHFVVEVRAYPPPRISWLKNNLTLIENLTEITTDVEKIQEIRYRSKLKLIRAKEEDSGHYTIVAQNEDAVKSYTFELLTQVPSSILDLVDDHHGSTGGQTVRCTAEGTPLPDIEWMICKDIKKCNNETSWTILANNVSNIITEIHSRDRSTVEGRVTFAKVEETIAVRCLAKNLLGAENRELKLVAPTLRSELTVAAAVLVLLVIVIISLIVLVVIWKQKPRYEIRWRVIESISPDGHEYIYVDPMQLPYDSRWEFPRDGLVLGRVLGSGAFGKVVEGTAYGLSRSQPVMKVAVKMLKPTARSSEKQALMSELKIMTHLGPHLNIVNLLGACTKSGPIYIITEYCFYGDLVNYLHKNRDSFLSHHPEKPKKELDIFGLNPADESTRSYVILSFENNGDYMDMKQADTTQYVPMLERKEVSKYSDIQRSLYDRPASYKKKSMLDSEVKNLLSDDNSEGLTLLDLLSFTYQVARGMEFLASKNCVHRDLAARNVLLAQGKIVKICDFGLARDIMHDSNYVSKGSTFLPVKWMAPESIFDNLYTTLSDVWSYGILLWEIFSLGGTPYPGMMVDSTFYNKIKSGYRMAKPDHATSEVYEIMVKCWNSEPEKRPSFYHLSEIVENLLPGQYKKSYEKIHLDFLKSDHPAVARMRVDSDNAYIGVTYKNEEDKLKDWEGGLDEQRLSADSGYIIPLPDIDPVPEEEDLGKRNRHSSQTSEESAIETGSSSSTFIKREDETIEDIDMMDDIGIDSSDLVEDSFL
Chain of Receptor tyrosine-protein kinase erbB-3 (Homo sapiens) (P21860 whole entry): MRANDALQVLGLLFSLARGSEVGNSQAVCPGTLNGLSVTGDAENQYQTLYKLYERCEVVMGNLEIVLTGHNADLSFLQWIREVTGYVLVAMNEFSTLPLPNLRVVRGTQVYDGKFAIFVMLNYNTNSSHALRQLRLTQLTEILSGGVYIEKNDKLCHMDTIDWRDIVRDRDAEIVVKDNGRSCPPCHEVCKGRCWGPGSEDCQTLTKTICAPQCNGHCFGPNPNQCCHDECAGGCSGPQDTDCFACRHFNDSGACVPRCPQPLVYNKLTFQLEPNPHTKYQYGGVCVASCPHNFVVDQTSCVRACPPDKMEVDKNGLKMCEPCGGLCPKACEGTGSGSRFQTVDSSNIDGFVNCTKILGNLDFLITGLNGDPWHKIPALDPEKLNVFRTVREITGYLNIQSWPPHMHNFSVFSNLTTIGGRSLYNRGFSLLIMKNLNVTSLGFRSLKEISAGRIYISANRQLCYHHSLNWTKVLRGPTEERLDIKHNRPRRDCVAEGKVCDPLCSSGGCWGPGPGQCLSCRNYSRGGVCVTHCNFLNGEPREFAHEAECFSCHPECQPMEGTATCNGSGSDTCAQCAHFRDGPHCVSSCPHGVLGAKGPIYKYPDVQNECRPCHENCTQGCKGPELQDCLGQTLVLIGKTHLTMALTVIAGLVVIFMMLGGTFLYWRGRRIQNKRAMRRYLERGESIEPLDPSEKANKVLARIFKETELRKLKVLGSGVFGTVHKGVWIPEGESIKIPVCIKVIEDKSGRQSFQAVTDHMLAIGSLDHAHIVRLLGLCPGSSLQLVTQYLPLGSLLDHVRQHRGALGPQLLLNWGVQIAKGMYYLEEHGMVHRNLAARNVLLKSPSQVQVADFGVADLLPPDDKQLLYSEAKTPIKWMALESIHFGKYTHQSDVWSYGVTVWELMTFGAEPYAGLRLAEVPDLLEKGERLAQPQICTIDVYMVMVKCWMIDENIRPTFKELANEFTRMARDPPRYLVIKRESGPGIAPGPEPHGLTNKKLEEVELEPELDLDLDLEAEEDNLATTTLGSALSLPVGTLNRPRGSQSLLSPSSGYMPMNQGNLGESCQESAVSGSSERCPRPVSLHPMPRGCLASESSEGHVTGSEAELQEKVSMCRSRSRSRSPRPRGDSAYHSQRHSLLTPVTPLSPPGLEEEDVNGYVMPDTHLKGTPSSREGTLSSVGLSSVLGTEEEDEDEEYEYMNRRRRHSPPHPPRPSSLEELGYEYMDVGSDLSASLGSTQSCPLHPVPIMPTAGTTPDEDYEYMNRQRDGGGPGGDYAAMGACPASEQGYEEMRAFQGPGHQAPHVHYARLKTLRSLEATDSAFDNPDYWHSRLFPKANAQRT
Chain of Serine/threonine-protein kinase Chk2 (Homo sapiens) (O96017 whole entry): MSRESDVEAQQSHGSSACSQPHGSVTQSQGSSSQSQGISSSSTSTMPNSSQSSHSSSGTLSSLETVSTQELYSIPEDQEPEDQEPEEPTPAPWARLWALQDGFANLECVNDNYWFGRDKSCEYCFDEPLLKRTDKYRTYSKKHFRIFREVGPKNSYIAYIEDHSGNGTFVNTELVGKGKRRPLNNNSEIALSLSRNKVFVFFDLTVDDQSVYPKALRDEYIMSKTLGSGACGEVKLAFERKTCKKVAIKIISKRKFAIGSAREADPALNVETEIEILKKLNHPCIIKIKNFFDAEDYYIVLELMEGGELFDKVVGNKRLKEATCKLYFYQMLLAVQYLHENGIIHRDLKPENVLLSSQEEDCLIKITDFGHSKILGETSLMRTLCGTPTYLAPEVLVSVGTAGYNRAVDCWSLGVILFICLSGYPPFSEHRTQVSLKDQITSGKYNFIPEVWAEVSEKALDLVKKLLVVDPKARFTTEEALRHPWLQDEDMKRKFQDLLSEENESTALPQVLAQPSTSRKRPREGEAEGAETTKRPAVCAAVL
Chain of Serine/threonine-protein kinase 32A (Homo sapiens) (Q8WU08 whole entry): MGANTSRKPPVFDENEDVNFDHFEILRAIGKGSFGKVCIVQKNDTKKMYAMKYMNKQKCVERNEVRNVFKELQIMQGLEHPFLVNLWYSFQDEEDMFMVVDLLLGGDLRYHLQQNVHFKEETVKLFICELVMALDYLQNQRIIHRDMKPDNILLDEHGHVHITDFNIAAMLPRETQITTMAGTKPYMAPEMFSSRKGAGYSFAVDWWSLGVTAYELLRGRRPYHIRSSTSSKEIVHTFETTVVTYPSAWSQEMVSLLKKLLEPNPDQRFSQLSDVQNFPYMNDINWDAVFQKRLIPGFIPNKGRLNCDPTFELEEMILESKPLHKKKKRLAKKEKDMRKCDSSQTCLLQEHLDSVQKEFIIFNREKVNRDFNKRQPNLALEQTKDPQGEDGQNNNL
Chain of Mitogen-activated protein kinase 4 (Homo sapiens) (P31152 whole entry): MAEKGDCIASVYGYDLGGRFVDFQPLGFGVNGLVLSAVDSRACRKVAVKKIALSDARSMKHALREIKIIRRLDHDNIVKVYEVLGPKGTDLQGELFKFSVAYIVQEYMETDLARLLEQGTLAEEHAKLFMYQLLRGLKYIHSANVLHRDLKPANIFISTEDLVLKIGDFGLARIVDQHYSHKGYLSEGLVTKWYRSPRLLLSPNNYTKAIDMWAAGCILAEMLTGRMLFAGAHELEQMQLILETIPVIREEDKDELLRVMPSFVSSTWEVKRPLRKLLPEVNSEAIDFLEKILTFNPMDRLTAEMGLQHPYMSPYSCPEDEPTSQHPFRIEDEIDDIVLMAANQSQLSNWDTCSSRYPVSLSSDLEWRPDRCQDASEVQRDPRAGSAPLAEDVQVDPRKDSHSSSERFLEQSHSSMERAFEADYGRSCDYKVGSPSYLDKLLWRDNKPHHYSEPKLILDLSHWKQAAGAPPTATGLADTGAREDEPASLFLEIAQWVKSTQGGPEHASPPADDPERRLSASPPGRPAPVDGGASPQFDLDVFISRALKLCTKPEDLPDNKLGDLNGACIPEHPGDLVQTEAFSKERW

With CCC(=O)N1CCN(c2ccc(-n3c(=O)ccc4cnc5ccc(-c6cnc7ccccc7c6)cc5c43)cc2C(F)(F)F)CC1 the % of control [1] was 100%.
CN(C)CCOc1ccc(-c2nc(-c3ccncc3)c(-c3ccc4c(c3)CC/C4=N\O)[nH]2)cc1 was tested, and the % of control [2] was 0.7%.
Nc1cnc(N2CCc3cc(S(=O)(=O)Nc4c(F)cc(Cl)cc4F)cc(N4CCCC4=O)c32)nc1 [TP-020n] gave a % of control [3] of 89%.
In the case of O=C(NOC[C@H](O)CO)c1ccc(F)c(F)c1Nc1ccc(I)cc1F, the % of control [4] is reported as 100% and the % of control [5] is reported as 77%.
CC[C@@H]1[C@H](F)C(=O)N[C@@H]1COc1nccc2cc(C(N)=O)c(OC)cc12 [ZIMLOVISERTIB] was tested, and the % of inhibition [6] was -4.5% and the % of inhibition [7] was 6.9%.
CN(C)C/C=C/C(=O)Nc1ccc(C(=O)N2CCCC(Nc3ncc(Cl)c(-c4c[nH]c5ccccc45)n3)C2)cc1 (stereo not given) showed a % of control [8] of 76% and a % of control [9] of 86%.
For Cc1cnc(Nc2ccc(F)cc2Cl)nc1-c1c[nH]c(C(=O)N[C@H](CO)c2cccc(Cl)c2)c1, the % of inhibition [10] was 0%.
